Laboratory results: patent publication US12486274B2, “Substituted pyrazolo-pyrimidines and uses thereof” (Verge Analytics, Inc., priority 2020, dated 2025)

These molecules were tested against Full length human recombinant PIKFYVE (Homo sapiens (Human), UniProt Q9Y2I7) (assay: Inhibition of PIKfyve (microfluidic electrophoresis kinase assay)). Settings: 2 nM enzyme, PI3P/PS substrate, 3 h at room temperature, 12 concentrations.
Chain of Full length human recombinant PIKFYVE (Q9Y2I7 whole entry): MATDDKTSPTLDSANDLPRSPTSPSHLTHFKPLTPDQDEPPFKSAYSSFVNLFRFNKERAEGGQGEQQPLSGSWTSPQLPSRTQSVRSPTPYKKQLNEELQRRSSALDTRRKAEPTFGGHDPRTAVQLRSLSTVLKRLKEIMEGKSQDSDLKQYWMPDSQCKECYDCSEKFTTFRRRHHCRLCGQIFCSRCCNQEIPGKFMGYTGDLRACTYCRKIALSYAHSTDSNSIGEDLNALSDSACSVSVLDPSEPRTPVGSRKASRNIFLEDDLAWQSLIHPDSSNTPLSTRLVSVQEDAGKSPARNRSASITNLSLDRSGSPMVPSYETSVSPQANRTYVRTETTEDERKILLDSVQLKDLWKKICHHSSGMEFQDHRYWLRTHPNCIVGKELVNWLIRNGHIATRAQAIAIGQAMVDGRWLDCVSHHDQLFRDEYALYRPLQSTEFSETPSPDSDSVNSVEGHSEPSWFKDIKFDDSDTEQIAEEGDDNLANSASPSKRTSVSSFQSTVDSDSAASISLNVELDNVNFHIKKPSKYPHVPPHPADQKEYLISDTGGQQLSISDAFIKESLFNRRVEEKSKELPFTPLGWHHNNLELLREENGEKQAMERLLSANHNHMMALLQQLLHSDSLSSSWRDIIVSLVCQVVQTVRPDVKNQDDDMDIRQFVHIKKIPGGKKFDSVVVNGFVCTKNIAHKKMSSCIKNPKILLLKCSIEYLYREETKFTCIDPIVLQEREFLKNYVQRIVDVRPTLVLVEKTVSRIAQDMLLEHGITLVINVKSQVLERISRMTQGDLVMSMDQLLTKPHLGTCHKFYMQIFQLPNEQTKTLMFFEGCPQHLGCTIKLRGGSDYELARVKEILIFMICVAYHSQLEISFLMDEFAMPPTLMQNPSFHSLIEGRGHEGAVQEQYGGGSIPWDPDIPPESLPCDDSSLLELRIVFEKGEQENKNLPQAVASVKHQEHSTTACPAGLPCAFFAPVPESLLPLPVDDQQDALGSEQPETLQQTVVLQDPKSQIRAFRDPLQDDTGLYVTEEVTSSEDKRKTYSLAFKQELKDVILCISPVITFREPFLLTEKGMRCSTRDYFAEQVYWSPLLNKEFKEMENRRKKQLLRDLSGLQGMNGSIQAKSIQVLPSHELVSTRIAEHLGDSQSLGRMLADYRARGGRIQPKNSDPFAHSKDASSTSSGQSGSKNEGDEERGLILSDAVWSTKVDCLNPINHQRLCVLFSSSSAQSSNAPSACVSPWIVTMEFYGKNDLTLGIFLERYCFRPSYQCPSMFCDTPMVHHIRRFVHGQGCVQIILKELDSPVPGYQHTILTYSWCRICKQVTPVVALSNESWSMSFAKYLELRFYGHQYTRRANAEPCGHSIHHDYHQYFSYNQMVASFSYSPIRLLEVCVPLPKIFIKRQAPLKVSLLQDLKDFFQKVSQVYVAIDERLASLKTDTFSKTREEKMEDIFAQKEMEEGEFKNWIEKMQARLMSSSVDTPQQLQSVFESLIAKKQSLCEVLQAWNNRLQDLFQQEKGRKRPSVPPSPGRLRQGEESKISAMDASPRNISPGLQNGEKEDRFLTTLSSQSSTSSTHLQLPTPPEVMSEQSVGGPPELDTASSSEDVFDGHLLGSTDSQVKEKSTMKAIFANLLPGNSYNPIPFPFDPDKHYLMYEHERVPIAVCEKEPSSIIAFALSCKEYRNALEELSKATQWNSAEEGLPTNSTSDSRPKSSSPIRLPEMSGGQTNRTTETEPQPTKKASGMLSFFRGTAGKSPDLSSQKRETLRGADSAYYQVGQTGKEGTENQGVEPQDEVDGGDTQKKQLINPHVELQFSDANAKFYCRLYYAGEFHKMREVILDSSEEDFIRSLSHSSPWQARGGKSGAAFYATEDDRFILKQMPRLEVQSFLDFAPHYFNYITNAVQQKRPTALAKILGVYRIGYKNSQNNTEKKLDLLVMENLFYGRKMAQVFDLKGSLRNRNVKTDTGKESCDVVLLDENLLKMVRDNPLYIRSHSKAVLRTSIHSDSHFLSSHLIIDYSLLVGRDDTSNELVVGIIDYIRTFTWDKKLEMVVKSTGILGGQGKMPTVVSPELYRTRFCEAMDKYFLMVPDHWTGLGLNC
Format: biochemical
Experimental: Full length human recombinant PIKFYVE expressed in baculovirus expression system as N-terminal GST-fusion protein (265 kDa) was obtained from Carna Biosciences (Kobe, Japan). The kinase substrate was prepared by mixing and sonicating fluorescently-labeled phosphatidylinositol 3-phosphate (PI3P) with phospho-L-serine (PS) at a 1:10 ratio in 50 mM HEPES buffer pH7.5.
The kinase reactions were assembled in 384-well plates (Greiner) in a total volume of […] as follows. Kinase protein was pre-diluted in an assay buffer comprising 25 mM HEPES, pH 7.5, 1 mM DTT, 2.5 mM MgCl2, and 2.5 mM MnCl2, and 0.005% Triton X-100, and dispensed into a 384-well plate (10 μL per well). Test compounds were serially pre-diluted in DMSO and added to the protein samples by acoustic dispensing (Labcyte Echo). The concentration of DMSO was equalized to 1% in all samples. All test compounds were tested at 12 concentrations. Apilimod was used as a reference compound and was tested in identical manner in each assay plate. Control samples (0%-inhibition, in the absence of inhibitor, DMSO only) and 100%-inhibition (in the absence of enzyme) were assembled in replicates of four and were used to calculate %-inhibition in the presence of compounds. The reactions were initiated by addition of 10 μL of 2× PI3P/PS substrate supplemented with ATP. The final concentration of enzyme was 2 nM, the final concentration of ATP was 10 mM, and the final concentration of PI3P/PS substrate was 1 μM (PI3P). The kinase reactions were allowed to proceed for 3 h at room temperature. Following incubation, the reactions were quenched by addition of […] of termination buffer (100 mM HEPES, pH 7.5, 0.01% Triton X-100, 20 mM EDTA). Terminated plates were analyzed on a microfluidic electrophoresis instrument (Caliper LabChip® 3000, Caliper Life Sciences/Perkin Elmer). The change in the relative fluorescence intensity of the PI (3) P substrate and PI (3,5) P product peaks was measured. The activity in each test sample was determined as the product to sum ratio (PSR): P/(S+P), where P is the peak height of the product, and S is the peak height of the substrate. Percent inhibition (Pinh) was determined using the following equation: Pinh=(PSR0% inh−PSRcompound)/(PSR0% inh−PSR100% inh)*100 in which PSRcompound is the product/sum ratio in the presence of compound, PSR0% inh is the product/sum ratio in the absence of compound, and the PSR100% inh is the product/sum ratio in the absence of the enzyme.
Molecule `c1ccc(-c2cnn(-c3cc(N4CCOCC4)n4nc(-c5cccnc5)cc4n3)c2)cc1` [Compound 79, 4-[5-(4-phenylpyrazol-1-yl)-2-(3-pyridyl)pyrazolo[1,5-a]pyrimidin-7-yl]morpholine] has an IC50 of 0.333 µM.
`CC(C)NC(=O)c1cc2nc(-n3cc(-c4ccccc4)cn3)cc(N3CCOCC3)n2n1` [Compound 80, N-isopropyl-7-morpholino-5-(4-phenylpyrazol-1-yl)pyrazolo[1,5-a]pyrimidine-2-carboxamide] gave an IC50 of 4.39 µM.
In the case of `c1ccc(-c2ccn(-c3cc(N4CCOCC4)n4nc(-c5cnccn5)cc4n3)n2)cc1` [Compound 82, 4-[5-(3-phenylpyrazol-1-yl)-2-pyrazin-2-yl-pyrazolo[1,5-a]pyrimidin-7-yl]morpholine], the IC50 is reported as 0.169 µM.
`Cc1cccc(-c2ccn(-c3cc(N4CCOCC4)n4nc(-c5cc(C)nn5CCN(C)C)cc4n3)n2)c1` [Compound 83, N,N-dimethyl-2-[3-methyl-5-[7-morpholino-5-[3-(m-tolyl)pyrazol-1-yl]pyrazolo[1,5-a]pyrimidin-2-yl]pyrazol-1-yl]ethanamine] showed an IC50 of 0.0226 µM.
With `Cc1cccc(-c2ccn(-c3cc(N4CCOCC4)n4nc(-c5cc(C)nn5C)cc4n3)n2)c1` [Compound 84, 4-[2-(2,5-dimethylpyrazol-3-yl)-5-[3-(m-tolyl)pyrazol-1-yl]pyrazolo[1,5-a]pyrimidin-7-yl]morpholine] the IC50 was 0.0026 µM.
Work on `Cc1cc(-c2cc3nc(-n4ccc(-c5ccccc5)n4)cc(N4CCOCC4)n3n2)n(C)n1` [Compound 85, 4-[2-(2,5-dimethylpyrazol-3-yl)-5-(3-phenylpyrazol-1-yl)pyrazolo[1,5-a]pyrimidin-7-yl]morpholine] yielded an IC50 of 0.215 µM.
`Cc1cc(-c2cc3nc(-n4ccc(-c5ccccc5)n4)cc(N4CCOCC4)n3n2)nn1C` [Compound 86, 4-[2-(1,5-dimethylpyrazol-3-yl)-5-(3-phenylpyrazol-1-yl)pyrazolo[1,5-a]pyrimidin-7-yl]morpholine] gave an IC50 of 0.0322 µM.
Molecule `Cc1cccc(-c2ccn(-c3cc(N4CCOCC4)n4nc(-c5cc(C)n(C)n5)cc4n3)n2)c1` [Compound 87, 4-[2-(1,5-dimethylpyrazol-3-yl)-5-[3-(m-tolyl)pyrazol-1-yl]pyrazolo[1,5-a]pyrimidin-7-yl]morpholine] has an IC50 of 0.0009 µM.
With `c1ccc(-c2ccn(-c3cc(N4CCOCC4)n4nc(-c5cccnn5)cc4n3)n2)cc1` [Compound 88, 4-[5-(3-phenylpyrazol-1-yl)-2-pyridazin-3-yl-pyrazolo[1,5-a]pyrimidin-7-yl]morpholine] the IC50 was 0.208 µM.
`COC(=O)NCc1cc2nc(-n3ccc(-c4ccccc4)n3)cc(N3CCOCC3)n2n1` [Compound 89, methyl N-[[7-morpholino-5-(3-phenylpyrazol-1-yl)pyrazolo[1,5-a]pyrimidin-2-yl]methyl]carbamate] showed an IC50 of 1.4 µM.
With `CCC(=O)NCc1cc2nc(-n3ccc(-c4ccccc4)n3)cc(N3CCOCC3)n2n1` [Compound 90] the IC50 was 2.16 µM.
`Cc1cccc(-c2ccn(-c3cc(N4CCOCC4)n4nc(-c5cc(C)n(CCN(C)C)n5)cc4n3)n2)c1` [Compound 91, N,N-dimethyl-2-[5-methyl-3-[7-morpholino-5-[3-(m-tolyl)pyrazol-1-yl]pyrazolo[1,5-a]pyrimidin-2-yl]pyrazol-1-yl]ethanamine] was tested, and the IC50 was 0.0094 µM.
In the case of `Cc1cc(-c2cc3nc(-n4ccc(-c5ccccn5)n4)cc(N4CCOCC4)n3n2)nn1CCN(C)C` [Compound 92, N,N-dimethyl-2-[5-methyl-3-[7-morpholino-5-[3-(2-pyridyl)pyrazol-1-yl]pyrazolo[1,5-a]pyrimidin-2-yl]pyrazol-1-yl]ethanamine], the IC50 is reported as 5.24 µM.
`Cc1cc(-c2cc3nc(-n4ccc(-c5ccncc5)n4)cc(N4CCOCC4)n3n2)nn1CCN(C)C` [Compound 93, N,N-dimethyl-2-[5-methyl-3-[7-morpholino-5-[3-(4-pyridyl)pyrazol-1-yl]pyrazolo[1,5-a]pyrimidin-2-yl]pyrazol-1-yl]ethanamine] was tested, and the IC50 was > 10 µM.
For `Cc1cccc(-c2ccn(-c3cc(N4CCOCC4)n4nc(-c5cc(C)n(CCN(C)C)n5)cc4n3)n2)n1` [Compound 94, N,N-dimethyl-2-[5-methyl-3-[5-[3-(6-methyl-2-pyridyl)pyrazol-1-yl]-7-morpholino-pyrazolo[1,5-a]pyrimidin-2-yl]pyrazol-1-yl]ethanamine], the IC50 was 4.39 µM.
Molecule `Cc1ccnc(-c2ccn(-c3cc(N4CCOCC4)n4nc(-c5cc(C)n(CCN(C)C)n5)cc4n3)n2)c1` [Compound 95, N,N-dimethyl-2-[5-methyl-3-[5-[3-(4-methyl-2-pyridyl)pyrazol-1-yl]-7-morpholino-pyrazolo[1,5-a]pyrimidin-2-yl]pyrazol-1-yl]ethanamine] has an IC50 of 0.35 µM.
For `Cc1cc(-c2ccn(-c3cc(N4CCOCC4)n4nc(-c5cc(C)n(CCN(C)C)n5)cc4n3)n2)ccn1` [Compound 96, N,N-dimethyl-2-[5-methyl-3-[5-[3-(2-methyl-4-pyridyl)pyrazol-1-yl]-7-morpholino-pyrazolo[1,5-a]pyrimidin-2-yl]pyrazol-1-yl]ethanamine], the IC50 was > 10 µM.
With `Cc1cc(-c2cc3nc(-n4ccc(-c5cccc(Cl)c5)n4)cc(N4CCOCC4)n3n2)nn1CCN(C)C` [Compound 97, 2-[3-[5-[3-(3-chlorophenyl)pyrazol-1-yl]-7-morpholino-pyrazolo[1,5-a]pyrimidin-2-yl]-5-methyl-pyrazol-1-yl]-N,N-dimethyl-ethanamine] the IC50 was 0.126 µM.
`Cc1cc(-c2cc3nc(-n4ccc(-c5ccccc5)n4)cc(N4CCOCC4)n3n2)nn1CCN(C)C` [Compound 99, N,N-dimethyl-2-[5-methyl-3-[7-morpholino-5-(3-phenylpyrazol-1-yl)pyrazolo[1,5-a]pyrimidin-2-yl]pyrazol-1-yl]ethanamine] gave an IC50 of 0.127 µM.
For `COc1cccc(-c2ccn(-c3cc(N4CCOCC4)n4nc(-c5cc(C)n(CCN(C)C)n5)cc4n3)n2)c1` [Compound 100, 2-[3-[5-[3-(3-methoxyphenyl)pyrazol-1-yl]-7-morpholino-pyrazolo[1,5-a]pyrimidin-2-yl]-5-methyl-pyrazol-1-yl]-N,N-dimethyl-ethanamine], the IC50 was 0.0084 µM.
In the case of `Cn1ccc(-c2cc3nc(-n4ccc(-c5cccc(Cl)c5)n4)cc(N4CCOCC4)n3n2)n1` [Compound 101, 4-[5-[3-(3-chlorophenyl)pyrazol-1-yl]-2-(1-methylpyrazol-3-yl)pyrazolo[1,5-a]pyrimidin-7-yl]morpholine], the IC50 is reported as 0.041 µM.
With `Cc1cncc(-c2ccn(-c3cc(N4CCOCC4)n4nc(-c5cccnc5)cc4n3)n2)c1` [Compound 102, 4-[5-[3-(5-methyl-3-pyridyl)pyrazol-1-yl]-2-(3-pyridyl)pyrazolo[1,5-a]pyrimidin-7-yl]morpholine] the IC50 was > 10 µM.
For `Cc1cc(-c2ccn(-c3cc(N4CCOCC4)n4nc(-c5cccnc5)cc4n3)n2)ccn1` [Compound 103, 4-[5-[3-(2-methyl-4-pyridyl)pyrazol-1-yl]-2-(3-pyridyl)pyrazolo[1,5-a]pyrimidin-7-yl]morpholine], the IC50 was > 10 µM.
Molecule `Nc1nccc(-c2cc3nc(-n4ccc(-c5ccccc5)n4)cc(N4CCOCC4)n3n2)n1` [Compound 104, 4-[7-morpholino-5-(3-phenylpyrazol-1-yl)pyrazolo[1,5-a]pyrimidin-2-yl]pyrimidin-2-amine] has an IC50 of 0.106 µM.
With `Clc1cccc(-c2ccn(-c3cc(N4CCOCC4)n4nc(-c5cccnc5)cc4n3)n2)c1` [Compound 105, 4-[5-[3-(3-chlorophenyl)pyrazol-1-yl]-2-(3-pyridyl)pyrazolo[1,5-a]pyrimidin-7-yl]morpholine] the IC50 was > 10 µM.
Work on `Brc1cccc(-c2ccn(-c3cc(N4CCOCC4)n4nc(-c5cccnc5)cc4n3)n2)c1` [Compound 106, 4-[5-[3-(3-bromophenyl)pyrazol-1-yl]-2-(3-pyridyl)pyrazolo[1,5-a]pyrimidin-7-yl]morpholine] yielded an IC50 of 0.0199 µM.
`COc1cccc(-c2ccn(-c3cc(N4CCOCC4)n4nc(-c5cccnc5)cc4n3)n2)c1` [Compound 107, 4-[5-[3-(3-methoxyphenyl)pyrazol-1-yl]-2-(3-pyridyl)pyrazolo[1,5-a]pyrimidin-7-yl]morpholine] gave an IC50 of 0.0071 µM.
Work on `Cc1cccc(-c2ccn(-c3cc(N4CCOCC4)n4nc(-c5cccnc5)cc4n3)n2)n1` [Compound 108, 4-[5-[3-(6-methyl-2-pyridyl)pyrazol-1-yl]-2-(3-pyridyl)pyrazolo[1,5-a]pyrimidin-7-yl]morpholine] yielded an IC50 of 1.35 µM.
`Nc1cccc(-c2cc3nc(-n4ccc(-c5ccccc5)n4)cc(N4CCOCC4)n3n2)n1` [Compound 109, 6-[7-morpholino-5-(3-phenylpyrazol-1-yl)pyrazolo[1,5-a]pyrimidin-2-yl]pyridin-2-amine] gave an IC50 of 0.278 µM.
